Where “and” joins values, the source holds several entries; their conditions need not be identical. Identical values can stand only once. Like-named read-outs stand apart in the source and are kept apart here.
Columns and labels:
Assay type in all cases: biochemical
HIV-1 RT mutant 69S-SS = target: T1, HIV-1 RT mutant 69S-SS (Human immunodeficiency virus type 1 group M subtype B, UniProt P04585, INS655SS/T656S); details: 69S-SS RT, AZT-TP assay, read-out: Km (BrdUTP)
T1 construct: The final RT products, in a heterodimeric form (p66/p51); made in house; host or cells: E. coli XL1-Blue (vector pKK233-2)

HIV-1 RT mutant V75T = target: T2, HIV-1 RT mutant V75T (Human immunodeficiency virus type 1 group M subtype B, UniProt P04585, V662T); details: d4T-TP assay
T2 construct: The final RT products, in a heterodimeric form (p66/p51); made in house

HIV-1 RT mutant 41/215 = HIV-1 RT mutant 41/215 (Human immunodeficiency virus type 1 group M subtype B, UniProt P04585, M628L/T802Y); experiment: RT inhibition assay (Lenti RT, polyrA/oligo(dT), BrdUTP); details: 41/215 RT, AZT-TP assay
HIV-1 RT mutant 69S-AG = target: T3, HIV-1 RT mutant 69S-AG (Human immunodeficiency virus type 1 group M subtype B, UniProt P04585, INS655SA/T656G/T656S); details: 69S-AG RT
T3 construct: The final RT products, in a heterodimeric form (p66/p51); made in house; host or cells: E. coli XL1-Blue (vector pKK233-2)

[1] = target: T4, HIV-1 RT mutant 41/67/70/215 (Human immunodeficiency virus type 1 group M subtype B, UniProt P04585, D654N/K657R/M628L/T802Y); details: 41/67/70/215 RT
T4 construct: The final RT products, in a heterodimeric form (p66/p51); made in house; host or cells: E. coli XL1-Blue (vector pKK233-2)

[2] = target: T5, HIV-1 RT wild type (HXB2) (Human immunodeficiency virus type 1 group M subtype B, UniProt P04585)
T5 construct: The final RT products, in a heterodimeric form (p66/p51); made in house; host or cells: E. coli XL1-Blue (vector pKK233-2)

HIV-1 RT mutant 69S-SG = target: T6, HIV-1 RT mutant 69S-SG (Human immunodeficiency virus type 1 group M subtype B, UniProt P04585, INS655SS/T656G/T656S); details: 69S-SG RT
T6 construct: The final RT products, in a heterodimeric form (p66/p51); made in house; host or cells: E. coli XL1-Blue (vector pKK233-2)

[3] = target: T7, HIV-1 RT mutant 41/67/70/184/215 (Human immunodeficiency virus type 1 group M subtype B, UniProt P04585, D654N/K657R/M628L/M771V/T802Y); details: 41/67/70/184/215 RT
T7 construct: The final RT products, in a heterodimeric form (p66/p51); made in house; host or cells: E. coli XL1-Blue (vector pKK233-2)

HIV-1 RT mutant Q151M = target: T8, HIV-1 RT mutant Q151M (Human immunodeficiency virus type 1 group M subtype B, UniProt P04585, Q738M); details: d4T-TP assay
T8 construct: The final RT products, in a heterodimeric form (p66/p51); made in house

[4] = target: T9, HIV-1 RT mutant 41/69S-SS/215 (Human immunodeficiency virus type 1 group M subtype B, UniProt P04585, INS655SS/M628L/T656S/T802Y); details: 41/69S-SS/215 RT, AZT-TP assay, read-out: Km (BrdUTP)
T9 construct: The final RT products, in a heterodimeric form (p66/p51); made in house; host or cells: E. coli XL1-Blue (vector pKK233-2)

[5] = target: T10, HIV-1 RT mutant 41/67/70/184/210/211/214/215 (Human immunodeficiency virus type 1 group M subtype B, UniProt P04585, D654N/K657R/L797W/L801F/M628L/M771V/R798K/T802Y); details: 41/67/70/184/210/211/214/215 RT
T10 construct: The final RT products, in a heterodimeric form (p66/p51); made in house; host or cells: E. coli XL1-Blue (vector pKK233-2)

[6] = target: T11, HIV-1 RT mutant 41/184/215 (Human immunodeficiency virus type 1 group M subtype B, UniProt P04585, M628L/M771V/T802Y); details: 41/184/215 RT, AZT-TP assay, read-out: Km (BrdUTP)
T11 construct: The final RT products, in a heterodimeric form (p66/p51); made in house; host or cells: E. coli XL1-Blue (vector pKK233-2)

[7] = AZT-TP assay, ATP 3.2 mM, read-out: Km (BrdUTP)
[8] = AZT-TP assay, without ATP, read-out: Km (BrdUTP)
[9] = d4T-TP assay, ATP 3.2 mM, read-out: Km
[10] = d4T-TP assay, without ATP, read-out: Km

bromo-deoxyuridine-triphosphate [BrdUTP]
Km (HIV-1 RT mutant 69S-SS; ATP 3.2 mM): 0.22 µM | Km (HIV-1 RT mutant 69S-SS; without ATP): 0.066 µM | Km (HIV-1 RT mutant V75T; ATP 3.2 mM): 0.165 µM | Km (HIV-1 RT mutant V75T; without ATP): 0.079 µM | Km (HIV-1 RT mutant 41/215; ATP 3.2 mM): 0.36 µM | Km (HIV-1 RT mutant 41/215; without ATP): 0.11 µM | Km (HIV-1 RT mutant 69S-AG; [7]): 0.28 µM | Km (HIV-1 RT mutant 69S-AG; [8]): 0.1 µM | Km (HIV-1 RT mutant 69S-AG; [9]): 0.126 µM | Km (HIV-1 RT mutant 69S-AG; [10]): 0.117 µM | Km ([1]; AZT-TP assay, ATP 3.2 mM + PPi 150 μM, read-out: Km (BrdUTP)): 0.202 µM | Km [1, 7]: 0.074 µM | Km ([1]; AZT-TP assay, ATP 6.0 mM, read-out: Km (BrdUTP)): 0.225 µM | Km ([1]; AZT-TP assay, ATP […], read-out: Km (BrdUTP)): 0.064 µM | Km ([1]; AZT-TP assay, GTP 0.5 mM, read-out: Km (BrdUTP)): 0.117 µM | Km ([1]; AZT-TP assay, PPi 150 μM, read-out: Km (BrdUTP)): 0.09 µM | Km ([1]; AZT-TP assay, no extra additions (without ATP), read-out: Km (BrdUTP)): 0.01 µM | Km ([1]; AZT-TP assay, nontreated pyrophosphatase ATP 3.2 mM (control), single experiment, read-out: Km (BrdUTP)): 0.044 µM | Km ([1]; AZT-TP assay, pyrophosphatase treated ATP 3.2 mM, single experiment, read-out: Km (BrdUTP)): 0.037 µM | Km [1, 9]: 0.126 µM | Km [1, 10]: 0.08 µM | Km ([2]; read-out: Km (BrdUTP)): 0.31 µM and 0.17 µM | Km ([2]; wild type HXB2 RT, AZT-TP assay, ATP 3.2 mM + PPi 150 μM, read-out: Km (BrdUTP)): 0.517 µM | Km ([2]; wild type HXB2 RT, AZT-TP assay, ATP 6.0 mM, read-out: Km (BrdUTP)): 0.81 µM | Km ([2]; wild type HXB2 RT, AZT-TP assay, ATP […], read-out: Km (BrdUTP)): 0.24 µM | Km ([2]; wild type HXB2 RT, AZT-TP assay, GTP 0.5 mM, read-out: Km (BrdUTP)): 0.324 µM | Km ([2]; wild type HXB2 RT, AZT-TP assay, PPi 150 μM, read-out: Km (BrdUTP)): 0.3 µM | Km ([2]; wild type HXB2 RT, d4T-TP assay, ATP 3.2 mM, read-out: Km): 0.162 µM | Km ([2]; wild type HXB2 RT, d4T-TP assay, without ATP, read-out: Km): 0.136 µM | Km (HIV-1 RT mutant 69S-SG; [7]): 0.36 µM | Km (HIV-1 RT mutant 69S-SG; [8]): 0.1 µM | Km (HIV-1 RT mutant 69S-SG; [9]): 0.228 µM | Km (HIV-1 RT mutant 69S-SG; [10]): 0.239 µM | Km [3, 7]: 0.38 µM | Km [3, 8]: 0.06 µM | Km [3, 9]: 0.152 µM | Km [3, 10]: 0.075 µM | Km (HIV-1 RT mutant Q151M; ATP 3.2 mM): 0.174 µM | Km (HIV-1 RT mutant Q151M; without ATP): 0.117 µM | Km ([4]; ATP 3.2 mM): 0.21 µM | Km ([4]; without ATP): 0.045 µM | Km [5, 7]: 0.58 µM | Km [5, 8]: 0.12 µM | Km [5, 9]: 0.249 µM | Km [5, 10]: 0.216 µM | Km ([6]; ATP 3.2 mM): 0.14 µM | Km ([6]; without ATP): 0.049 µM

— patent US7087375B1, “Method for determining the mechanism of HIV RT inhibitors” (priority 2000, dated 2006)
